Literature values in patent US11730747B2, “Drink product and use thereof” (HYGIA PHARMACEUTICALS, LLC, priority 2013, dated 2023).

Legend:
JB6 cells = conditions: IP6 0.5-2 mM, three-dimensional growth in soft agar
PC-3 = PC-3 cells
large intestinal cancer = conditions: rats; treatment begun 5 months after carcinogenic induction with azoxymethane
[1] = tested on: human colon cancer cell lines
pulmonary adenomas = conditions: diet containing 3% myo-inositol, fed beginning 1 week after exposure to benzo[a]pyrene
PI3K = conditions: lung adenocarcinoma cell line
bronchial dysplasia = conditions: smokers

levels of integrin linked kinase 1 (ILK1) and cyclin D1 (PC-3)	phosphorylation levels of the p85 subunit of PI3K at Tyr458 and phosphoinositide-dependent kinase-1 at Ser241 (PC-3)	Compound	inhibition of EGF or TPA-induced cell transformation (JB6 cells)	levels of phosphorylated AKT and GSK3α/β (PC-3)	large intestinal cancers (large intestinal cancer)	growth of human colon cancer cell lines in vitro [1]	reduction of the number of pulmonary adenomas (pulmonary adenomas) [%]	PI3K activity (PI3K)	EC50 (PI3K; read-out: median effective concentration (ECs) for PI3K inhibition) [µM]	reduction in the systolic and diastolic blood pressures (average) (bronchial dysplasia; 18 grams per day for 3 months) [mm Hg]	rate of regression of preexisting dysplastic lesions (bronchial dysplasia; 18 grams per day for 3 months, versus 48%, P=0.014) [%]	maximum tolerated dose (bronchial dysplasia; oral administration, dose escalation study for one month) [grams per day]	side effects (bronchial dysplasia; oral myo-inositol)
strong decrease	reduced phosphorylation levels	O=P(O)(O)O[C@H]1[C@H](OP(=O)(O)O)[C@@H](OP(=O)(O)O)[C@H](OP(=O)(O)O)[C@@H](OP(=O)(O)O)[C@H]1OP(=O)(O)O [IP6, inositol-1,2,3,4,5,6-hexakisphosphate]	dose-dependent inhibition	reduced levels	significantly (p=0.02) reducing	inhibits growth	–	–	–	–	–	–	–
–	–	O[C@H]1[C@H](O)[C@@H](O)[C@H](O)[C@@H](O)[C@H]1O [myoinositol]	–	–	–	–	40	dose-dependent decreases	0.073	10	91	18	mild and mainly gastrointestinal in nature
